In PubChem BioAssay AID2060496 (Molecular Pharmacology Branch, DTP, NCI, 2025):

System: 276233-004-R-J1-PDC complex spheroid viability
Assay: Anticancer human tumor 276233-004-R-J1-PDC patient-derived colon adenocarcinoma cell line growth inhibition [GQUAD]
Details: for IC50: curve of first compound; for viability, T/C: stronger effect = lower value
Summary of the method: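 Multi-cell-type spheroids of tumor cells with HUVEC and mesenchymal stem cells, treated with drug combinations. Concentrations descend in half-log steps from near clinical Cmax, or from 10 microM where Cmax is unknown; viability read-out.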

[1] = second compound 0.0316 µM, first compound 0.0316 µM
[2] = second compound 0.0316 µM, first compound 0.1 µM
[3] = second compound 0.0316 µM, first compound 0.316 µM
[4] = second compound 0.0316 µM, first compound 1 µM
[5] = second compound 0.0316 µM, first compound 3.16 µM
[6] = second compound 0.0316 µM, first compound 10 µM
[7] = second compound 0.1 µM, first compound 0.0316 µM
[8] = second compound 0.1 µM, first compound 0.1 µM
[9] = second compound 0.1 µM, first compound 0.316 µM
[10] = second compound 0.1 µM, first compound 1 µM
[11] = second compound 0.1 µM, first compound 3.16 µM
[12] = second compound 0.1 µM, first compound 10 µM
[13] = second compound 0.316 µM, first compound 0.0316 µM
[14] = second compound 0.316 µM, first compound 0.1 µM
[15] = second compound 0.316 µM, first compound 0.316 µM
[16] = second compound 0.316 µM, first compound 1 µM
[17] = second compound 0.316 µM, first compound 3.16 µM
[18] = second compound 0.316 µM, first compound 10 µM
[19] = second compound 1 µM, first compound 0.0316 µM
[20] = second compound 1 µM, first compound 0.1 µM
[21] = second compound 1 µM, first compound 0.316 µM
[22] = second compound 1 µM, first compound 1 µM
[23] = second compound 1 µM, first compound 3.16 µM
[24] = second compound 1 µM, first compound 10 µM
[25] = second compound 3.16 µM, first compound 0.0316 µM
[26] = second compound 3.16 µM, first compound 0.1 µM
[27] = second compound 3.16 µM, first compound 0.316 µM
[28] = second compound 3.16 µM, first compound 1 µM
[29] = second compound 3.16 µM, first compound 3.16 µM
[30] = second compound 3.16 µM, first compound 10 µM
[31] = second compound 10 µM, first compound 0.0316 µM
[32] = second compound 10 µM, first compound 0.1 µM
[33] = second compound 10 µM, first compound 0.316 µM
[34] = second compound 10 µM, first compound 1 µM
[35] = second compound 10 µM, first compound 3.16 µM
[36] = second compound 10 µM, first compound 10 µM
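Also: spheroids exposed to drugs for seven days.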
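For viability, T/C in this document: 100% = DMSO vehicle control viability.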

Molecule `COc1ncnc(C2CC2)c1-c1ncc2cnn(Cc3ccc(-c4nc(C(F)(F)F)cn4C(C)C)cc3)c2n1` + CN(C)c1ccc(Nc2c3ccc(NC(=O)CCN4CCCC4)cc3nc3cc(NC(=O)CCN4CCCC4)ccc23)cc1 has an IC50 (second compound 0.0316 µM) of over 10000 nM, an IC50 (second compound 0.1 µM) of over 10000 nM and an IC50 (second compound 0.316 µM) of over 10000 nM. For the same molecule, the IC50 (second compound 1 µM) was 31.6 nM, the IC50 (second compound 3.16 µM) was under 31.6 nM and the IC50 (second compound 10 µM) was under 31.6 nM. For the same molecule, the viability, T/C [1] was 87.4%, the viability, T/C [2] was 84.2% and the viability, T/C [3] was 74.3%. The viability, T/C [4] was 75.6%, the viability, T/C [5] was 68.8% and the viability, T/C [6] was 100%. For the same molecule, the viability, T/C [7] was 70.4%, the viability, T/C [8] was 90.2% and the viability, T/C [9] was 77.5%. The viability, T/C [10] was 75.8%, the viability, T/C [11] was 58.6% and the viability, T/C [12] was 65.8%. The viability, T/C [13] was 69.4%, the viability, T/C [14] was 72.7% and the viability, T/C [15] was 59.9%. The viability, T/C [16] was 44%, the viability, T/C [17] was 69.4% and the viability, T/C [18] was 72.5%. For the same molecule, the viability, T/C [19] was 57.3%, the viability, T/C [20] was 49.6% and the viability, T/C [21] was 51.4%. It also gave a viability, T/C [22] of 47%, a viability, T/C [23] of 65.3% and a viability, T/C [24] of 68.5%. For the same molecule, the viability, T/C [25] was 53.2%, the viability, T/C [26] was 35.7% and the viability, T/C [27] was 53.1%. For the same molecule, the viability, T/C [28] was 49.5%, the viability, T/C [29] was 56.7% and the viability, T/C [30] was 57.6%. The viability, T/C [31] was 35.6%, the viability, T/C [32] was 41.8% and the viability, T/C [33] was 36.7%. The viability, T/C [34] was 38.4%, the viability, T/C [35] was 58.4% and the viability, T/C [36] was 53.5%.
`Cc1[nH]c2ccccc2c1CCNCc1ccc(/C=C/C(=O)NO)cc1` + CN(C)c1ccc(Nc2c3ccc(NC(=O)CCN4CCCC4)cc3nc3cc(NC(=O)CCN4CCCC4)ccc23)cc1 was tested, and the IC50 (second compound 0.0316 µM) was 178 nM, the IC50 (second compound 0.1 µM) was 169 nM and the IC50 (second compound 0.316 µM) was 166 nM. For the same molecule, the IC50 (second compound 1 µM) was 47.7 nM, the IC50 (second compound 3.16 µM) was under 0.999 nM and the IC50 (second compound 10 µM) was under 0.999 nM. For the same molecule, the viability, T/C (second compound 0.0316 µM, first compound 0.000999 µM) was 99.1%, the viability, T/C (second compound 0.0316 µM, first compound 0.00316 µM) was 79% and the viability, T/C (second compound 0.0316 µM, first compound 0.00999 µM) was 80.2%. The viability, T/C [1] was 84%, the viability, T/C (second compound 0.0316 µM, first compound 0.0999 µM) was 77.5% and the viability, T/C [3] was 23.2%. For the same molecule, the viability, T/C (second compound 0.1 µM, first compound 0.000999 µM) was 87.7%, the viability, T/C (second compound 0.1 µM, first compound 0.00316 µM) was 90.7% and the viability, T/C (second compound 0.1 µM, first compound 0.00999 µM) was 60.1%. For the same molecule, the viability, T/C [7] was 71.3%, the viability, T/C (second compound 0.1 µM, first compound 0.0999 µM) was 79% and the viability, T/C [9] was 17.2%. The viability, T/C (second compound 0.316 µM, first compound 0.000999 µM) was 57.8%, the viability, T/C (second compound 0.316 µM, first compound 0.00316 µM) was 78.7% and the viability, T/C (second compound 0.316 µM, first compound 0.00999 µM) was 59.6%. It also gave a viability, T/C [13] of 50%, a viability, T/C (second compound 0.316 µM, first compound 0.0999 µM) of 85% and a viability, T/C [15] of 29.6%. It also gave a viability, T/C (second compound 1 µM, first compound 0.000999 µM) of 58.2%, a viability, T/C (second compound 1 µM, first compound 0.00316 µM) of 54.2% and a viability, T/C (second compound 1 µM, first compound 0.00999 µM) of 47.9%. It also gave a viability, T/C [19] of 64.3%, a viability, T/C (second compound 1 µM, first compound 0.0999 µM) of 38.9% and a viability, T/C [21] of 21.8%. The viability, T/C (second compound 3.16 µM, first compound 0.000999 µM) was 45.3%, the viability, T/C (second compound 3.16 µM, first compound 0.00316 µM) was 47.9% and the viability, T/C (second compound 3.16 µM, first compound 0.00999 µM) was 42.6%. For the same molecule, the viability, T/C [25] was 40.3%, the viability, T/C (second compound 3.16 µM, first compound 0.0999 µM) was 28.1% and the viability, T/C [27] was 8.05%. The viability, T/C (second compound 10 µM, first compound 0.000999 µM) was 29.1%, the viability, T/C (second compound 10 µM, first compound 0.00316 µM) was 39.6% and the viability, T/C (second compound 10 µM, first compound 0.00999 µM) was 38.8%. The viability, T/C [31] was 29.3%, the viability, T/C (second compound 10 µM, first compound 0.0999 µM) was 34% and the viability, T/C [33] was 3.25%.
For `O=C(NO)c1cnc(N2CCN(S(=O)(=O)c3ccc4ccccc4c3)CC2)nc1` + CN(C)c1ccc(Nc2c3ccc(NC(=O)CCN4CCCC4)cc3nc3cc(NC(=O)CCN4CCCC4)ccc23)cc1, the IC50 (second compound 0.0316 µM) was 564 nM, the IC50 (second compound 0.1 µM) was 382 nM and the IC50 (second compound 0.316 µM) was 291 nM. It also gave an IC50 (second compound 1 µM) of 385 nM, an IC50 (second compound 3.16 µM) of 207 nM and an IC50 (second compound 10 µM) of under 31.6 nM. The viability, T/C [1] was 97.6%, the viability, T/C [2] was 110% and the viability, T/C [3] was 93.9%. For the same molecule, the viability, T/C [4] was 6.51%, the viability, T/C [5] was 1.16% and the viability, T/C [6] was 0.86%. The viability, T/C [7] was 77.9%, the viability, T/C [8] was 138% and the viability, T/C [9] was 59.3%. The viability, T/C [10] was 5.11%, the viability, T/C [11] was 0.78% and the viability, T/C [12] was 1.12%. For the same molecule, the viability, T/C [13] was 61%, the viability, T/C [14] was 90.4% and the viability, T/C [15] was 48%. It also gave a viability, T/C [16] of 4.4%, a viability, T/C [17] of 1.75% and a viability, T/C [18] of 1.22%. The viability, T/C [19] was 70%, the viability, T/C [20] was 85.4% and the viability, T/C [21] was 59.9%. For the same molecule, the viability, T/C [22] was 1.33%, the viability, T/C [23] was 1.89% and the viability, T/C [24] was 2.09%. It also gave a viability, T/C [25] of 74.2%, a viability, T/C [26] of 68.7% and a viability, T/C [27] of 38.8%. It also gave a viability, T/C [28] of 3.01%, a viability, T/C [29] of 1.99% and a viability, T/C [30] of 0.85%. It also gave a viability, T/C [31] of 35.5%, a viability, T/C [32] of 45.6% and a viability, T/C [33] of 25.5%. It also gave a viability, T/C [34] of 5.18%, a viability, T/C [35] of 1.04% and a viability, T/C [36] of 1.85%.
